Earlier results as cited in US8507466B2, “Oils enriched with diacylglycerols and phytosterol esters and unit dosage forms thereof for use in therapy” (Enzymotec Ltd., priority 2003, dated 2013).

Legend:
[1] = tested on: LDL; settings: incubation of LDL with copper ion
[2] = tested on: tumor cell growth (LNCaP and HT-29); settings: compared to cholesterol

Row | Structure (SMILES) | elevation of LDL oxidation [1] | decrease in cell growth [2] | increase in apoptosis [2]
1 | CCCCC/C=C\C/C=C\CCCCCCCC(=O)O [linoleic acid (LA), linoleic acid] | 22% |  | 
2 | CC[C@H](CC[C@@H](C)[C@H]1CC[C@H]2[C@@H]3CC=C4C[C@@H](O)CC[C@]4(C)[C@H]3CC[C@]12C)C(C)C [beta-sitosterol] |  | 24% | 4 fold
